Test results as given in patent US11878975B2, “Substituted indole compounds useful as TLR inhibitors” (BRISTOL-MYERS SQUIBB COMPANY, priority 2017, dated 2024).

Tests used:
Format in all cases: cell-based
human TLR7 = molecular target: T1, human TLR7 (Homo sapiens, UniProt Q9NYK1); experiment: TLR7 inhibition reporter assay (HEK-Blue cells, SEAP reporter, gardiquimod stimulation); conditions: HEK-Blue cells overexpressing human TLR7, SEAP reporter, gardiquimod 7.5 μM
T1 construct: host or cells: HEK-Blue cells
T1 sequence (Q9NYK1 27-1049): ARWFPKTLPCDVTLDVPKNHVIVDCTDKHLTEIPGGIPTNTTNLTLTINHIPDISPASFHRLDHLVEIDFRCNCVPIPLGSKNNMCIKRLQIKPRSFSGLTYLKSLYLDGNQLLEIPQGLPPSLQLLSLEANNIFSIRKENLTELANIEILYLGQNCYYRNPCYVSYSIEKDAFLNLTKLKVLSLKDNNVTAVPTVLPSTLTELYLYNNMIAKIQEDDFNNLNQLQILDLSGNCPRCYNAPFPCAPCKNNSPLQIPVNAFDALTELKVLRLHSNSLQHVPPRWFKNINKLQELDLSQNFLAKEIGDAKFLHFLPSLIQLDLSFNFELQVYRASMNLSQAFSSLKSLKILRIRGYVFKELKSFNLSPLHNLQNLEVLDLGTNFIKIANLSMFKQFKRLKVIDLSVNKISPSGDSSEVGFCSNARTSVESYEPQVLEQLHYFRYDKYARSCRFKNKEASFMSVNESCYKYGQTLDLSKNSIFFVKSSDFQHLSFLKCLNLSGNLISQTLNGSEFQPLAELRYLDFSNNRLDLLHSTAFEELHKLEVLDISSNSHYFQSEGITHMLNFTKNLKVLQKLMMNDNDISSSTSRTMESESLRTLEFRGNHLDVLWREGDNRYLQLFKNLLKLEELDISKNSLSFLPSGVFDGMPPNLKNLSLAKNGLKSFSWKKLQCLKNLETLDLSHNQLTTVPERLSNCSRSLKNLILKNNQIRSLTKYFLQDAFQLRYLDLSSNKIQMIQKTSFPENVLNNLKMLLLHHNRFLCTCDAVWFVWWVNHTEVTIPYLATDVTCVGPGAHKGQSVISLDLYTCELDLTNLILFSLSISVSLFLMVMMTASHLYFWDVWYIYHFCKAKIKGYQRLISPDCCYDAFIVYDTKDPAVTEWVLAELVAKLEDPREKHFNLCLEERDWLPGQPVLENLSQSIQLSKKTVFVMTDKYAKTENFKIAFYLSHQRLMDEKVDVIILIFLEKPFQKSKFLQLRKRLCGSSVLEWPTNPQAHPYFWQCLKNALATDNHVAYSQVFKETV
How it was run: (§1)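 Percent inhibition is derived from SEAP signal, scaled between agonist-plus-DMSO wells and wells given a known inhibitor. Test compounds (0.05 nM–50 μM) are pre-incubated 30 min at room temperature before agonist addition (TLR7: 7.5 μM gardiquimod; TLR8: 15.9 μM R848; TLR9: 5 nM ODN2006) and 22 h culture at 37 °C.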

human TLR8 = molecular target: T2, human TLR8 (Homo sapiens, UniProt Q9NR97); experiment: TLR8 inhibition reporter assay (HEK-Blue cells, SEAP reporter, R848 stimulation); conditions: HEK-Blue cells overexpressing human TLR8, SEAP reporter, R848 15.9 μM
T2 construct: host or cells: HEK-Blue cells
T2 sequence (Q9NR97 27-1041): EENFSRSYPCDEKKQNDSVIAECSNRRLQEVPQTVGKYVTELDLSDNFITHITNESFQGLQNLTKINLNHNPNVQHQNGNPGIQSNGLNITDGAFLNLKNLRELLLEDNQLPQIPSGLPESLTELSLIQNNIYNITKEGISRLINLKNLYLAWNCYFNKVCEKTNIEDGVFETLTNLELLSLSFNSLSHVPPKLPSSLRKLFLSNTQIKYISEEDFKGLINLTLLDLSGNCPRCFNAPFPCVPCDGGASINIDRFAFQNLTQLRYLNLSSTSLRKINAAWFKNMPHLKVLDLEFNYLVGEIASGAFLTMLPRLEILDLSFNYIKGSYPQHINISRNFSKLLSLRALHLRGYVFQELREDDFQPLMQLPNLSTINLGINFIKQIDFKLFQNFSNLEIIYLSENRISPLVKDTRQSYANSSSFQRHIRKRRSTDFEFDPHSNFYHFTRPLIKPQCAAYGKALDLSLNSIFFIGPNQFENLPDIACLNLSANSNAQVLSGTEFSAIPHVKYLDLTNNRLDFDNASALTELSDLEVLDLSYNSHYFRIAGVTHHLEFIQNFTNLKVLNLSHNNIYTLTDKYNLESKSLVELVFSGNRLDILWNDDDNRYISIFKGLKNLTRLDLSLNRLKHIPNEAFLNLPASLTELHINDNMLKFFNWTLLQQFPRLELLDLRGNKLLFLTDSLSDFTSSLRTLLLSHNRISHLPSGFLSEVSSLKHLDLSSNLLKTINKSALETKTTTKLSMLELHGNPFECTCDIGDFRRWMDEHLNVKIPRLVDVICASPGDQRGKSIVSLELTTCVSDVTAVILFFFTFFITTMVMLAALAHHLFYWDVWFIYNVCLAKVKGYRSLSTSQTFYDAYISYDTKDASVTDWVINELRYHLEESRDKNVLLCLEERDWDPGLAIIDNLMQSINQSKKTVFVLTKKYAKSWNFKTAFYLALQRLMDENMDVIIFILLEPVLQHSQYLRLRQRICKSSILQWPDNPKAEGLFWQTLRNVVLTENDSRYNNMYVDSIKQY
How it was run: as §1

human TLR9 = molecular target: T3, human TLR9 (Homo sapiens, UniProt Q9NR96); experiment: TLR9 inhibition reporter assay (HEK-Blue cells, SEAP reporter, ODN2006 stimulation); conditions: HEK-Blue cells overexpressing human TLR9, SEAP reporter, ODN2006 5 nM
T3 construct: host or cells: HEK-Blue cells
T3 sequence (Q9NR96 26-1032): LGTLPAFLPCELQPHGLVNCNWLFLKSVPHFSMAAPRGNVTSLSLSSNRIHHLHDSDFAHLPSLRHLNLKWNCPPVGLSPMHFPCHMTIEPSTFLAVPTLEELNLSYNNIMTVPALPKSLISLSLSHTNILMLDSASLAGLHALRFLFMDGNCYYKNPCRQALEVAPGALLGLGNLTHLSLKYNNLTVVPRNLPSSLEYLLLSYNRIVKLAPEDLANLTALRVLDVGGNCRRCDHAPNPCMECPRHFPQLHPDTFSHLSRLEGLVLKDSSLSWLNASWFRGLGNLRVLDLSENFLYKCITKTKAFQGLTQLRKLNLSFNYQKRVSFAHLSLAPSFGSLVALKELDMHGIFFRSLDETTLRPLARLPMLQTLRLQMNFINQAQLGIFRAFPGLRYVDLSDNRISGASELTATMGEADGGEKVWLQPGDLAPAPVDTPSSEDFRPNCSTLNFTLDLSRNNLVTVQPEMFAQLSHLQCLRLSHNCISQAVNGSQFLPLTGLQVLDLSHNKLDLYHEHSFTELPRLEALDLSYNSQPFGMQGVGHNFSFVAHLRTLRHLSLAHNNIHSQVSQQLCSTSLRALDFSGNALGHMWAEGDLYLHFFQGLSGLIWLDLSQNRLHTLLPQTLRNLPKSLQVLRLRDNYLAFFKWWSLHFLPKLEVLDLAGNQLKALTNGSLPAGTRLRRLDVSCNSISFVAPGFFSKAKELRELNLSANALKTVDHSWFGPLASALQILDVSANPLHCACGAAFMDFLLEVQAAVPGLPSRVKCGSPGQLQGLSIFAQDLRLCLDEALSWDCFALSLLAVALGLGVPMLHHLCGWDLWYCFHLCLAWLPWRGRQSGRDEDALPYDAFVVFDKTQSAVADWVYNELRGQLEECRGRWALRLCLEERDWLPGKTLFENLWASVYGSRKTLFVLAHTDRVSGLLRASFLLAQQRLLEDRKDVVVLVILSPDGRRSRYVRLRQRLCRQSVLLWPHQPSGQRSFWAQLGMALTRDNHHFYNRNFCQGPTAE
How it was run: as §1

IC50 (human TLR7) [nM] | IC50 (human TLR8) [nM] | IC50 (human TLR9) [nM] | Structure (SMILES)
2 | 6.6 | 3100 | CNC1CCC(c2ccc3[nH]c(-c4cc(C)c5ncnn5c4)c(C(C)C)c3c2)CC1 (single isomer, unassigned) [Example 58]
0.44 | 1.9 | 760 | Cc1cc(-c2[nH]c3ccc(C4CNC4)cc3c2C(C)C)cn2ncnc12 [Example 257, 6-(5-(azetidin-3-yl)-3-isopropyl-1H-indol-2-yl)-8-methyl-[1,2,4]triazolo[1,5-a]pyridine]
2560 | 1080 | 2590 | CCc1c(-c2ccnc(C)c2)[nH]c2ccc(CN)cc12 [Example 394, [3-ethyl-2-(2-methylpyridin-4-yl)-1H-indol-5-yl]methanamine]
0.22 | 1.5 | 1390 | COc1cc(-c2[nH]c3ccc(C4CCC(NCC(N)=O)CC4)cc3c2C(C)C)cn2ncnc12 (stereo not drawn) [Example 107]
3 | 19 | 8170 | Cc1cc(-c2[nH]c3ccc(C4CN(CCS(C)(=O)=O)C4)cc3c2C(C)C)cn2ncnc12 [Example 264]
13 | 11 | 30100 | Cc1cc(-c2[nH]c3ccc(C4CN(CCS(C)(=O)=O)C(C)(C)CO4)cc3c2C(C)C)cn2ncnc12 (stereo not drawn) [Example 384]
0.31 | 2.9 | 1450 | Cc1cc(-c2[nH]c3ccc(C4CN(C(=O)CN(C)C)C4)cc3c2C(C)C)cn2ncnc12 [Example 266, 2-(dimethylamino)-1-(3-(3-isopropyl-2-(8-methyl-[1,2,4]triazolo[1,5-a]pyridin-6-yl)-1H-indol-5-yl)azetidin-1-yl)ethan-1-one]
22 | 51 | > 50000 | CNC(=O)CN1CC(c2ccc3[nH]c(-c4cn5ncnc5c(C)c4C)c(C(C)C)c3c2)OCC1(C)C (stereo not drawn) [Example 389]
0.28 | 0.75 | 2020 | COc1cc(-c2[nH]c3ccc(C4CCC(NC(=O)CN5CCCC5)CC4)cc3c2C(C)C)cn2ncnc12 (stereo not drawn) [Example 133]
2 | 4.5 | 277 | CNC(=O)CNC1CCC(c2ccc3[nH]c(-c4cc(C)nc(C)c4)c(C(C)C)c3c2)CC1 (single isomer, unassigned) [Example 180, 2-((4-(2-(2,6-dimethylpyridin-4-yl)-3-isopropyl-1H-indol-5-yl)cyclohexyl)amino)-N-methylacetamide]
3 | 6.3 | 8260 | Cc1cc(-c2[nH]c3ccc(C4CN(C)CCO4)cc3c2C(C)C)cn2ncnc12 (stereo not drawn) [Example 296]
8 | 11 | 26700 | Cc1cc(-c2[nH]c3ccc(C4CN(C(=O)CN(C)C)C(C)(C)CO4)cc3c2C(C)C)cn2ncnc12 (single isomer, unassigned) [Example 372, 2-(dimethylamino)-1-(2-(3-isopropyl-2-(8-methyl-[1,2,4]triazolo[1,5-a]pyridin-6-yl)-1H-indol-5-yl)-5,5-dimethylmorpholino)ethanone]
1 | 2.1 | 2090 | COCCN1CCN(C2CCC(c3ccc4[nH]c(-c5cc(OC)c6ncnn6c5)c(C(C)C)c4c3)CC2)CC1 (single isomer, unassigned) [Example 38]
0.45 | 1 | 2990 | CN[C@@H](C)C(=O)NC1CCC(c2ccc3[nH]c(-c4cn5ncnc5c(C)c4C)c(C(C)C)c3c2)CC1 (stereo partly drawn) [Example 131]
0.27 | 2.4 | 2340 | COc1cc(-c2[nH]c3ccc(C4CC5CN(CC(=O)N(C)C)CC5C4)cc3c2C(C)C)cn2ncnc12 (stereo not drawn) [Example 509]
0.66 | 1 | 3800 | Cc1cc(-c2[nH]c3ccc(C4CNCCO4)cc3c2C(C)C)cn2ncnc12 (stereo not drawn) [Example 282]
41 | 9.5 | 16500 | Cc1c(-c2[nH]c3ccc(C4CN(C(=O)CN(C)C)C4)cc3c2C(C)C)cn(C)c(=O)c1C [Example 484]
2 | 1 | 13500 | Cc1c(-c2[nH]c3ccc(C4CC(NC(=O)CN(C)C)C4)cc3c2C(C)C)cn(C)c(=O)c1C (stereo not drawn) [Example 490]
9 | 10 | 7730 | Cc1c(-c2[nH]c3ccc(C4CN(C(C)C)C4)cc3c2C(C)C)cn2ncnc2c1C [Example 555]
33 | 45 | 16500 | Cc1c(-c2[nH]c3ccc(C4CN(C5CCOC5)C4)cc3c2C(C)C)cn2cnnc2c1C (stereo not drawn) [Example 538]
4 | 5.1 | 9490 | Cc1c(-c2[nH]c3ccc(C4CN(CCS(C)(=O)=O)C4)cc3c2C(C)C)cn2ncnc2c1C [Example 543]
4 | 5.1 | 8050 | Cc1c(-c2[nH]c3ccc(C4CN(CC(N)=O)C4)cc3c2C(C)C)cn2ncnc2c1C [Example 548]
